In patent US20070010478A1 (priority 2005, published 2007):

Key:
P450 isoenzyme 3A4 = P450 isoenzyme 3A4 (Homo sapiens, UniProt P08684); conditions: cited from earlier work
P-gp = biological target: T1, P-gp (Homo sapiens, UniProt P08183); experiment: cellular P-gp function, DiOC2 accumulation assay with flow cytometry, in AML patients; format: in vivo; conditions: circulating NK cells and leukemic blasts; 700 mg/day continuous iv infusion
T1 construct: endogenous in cells; host or cells: circulating NK cells and leukemic blasts of AML patients
T1 sequence (P08183 whole entry, the tested form may be a part): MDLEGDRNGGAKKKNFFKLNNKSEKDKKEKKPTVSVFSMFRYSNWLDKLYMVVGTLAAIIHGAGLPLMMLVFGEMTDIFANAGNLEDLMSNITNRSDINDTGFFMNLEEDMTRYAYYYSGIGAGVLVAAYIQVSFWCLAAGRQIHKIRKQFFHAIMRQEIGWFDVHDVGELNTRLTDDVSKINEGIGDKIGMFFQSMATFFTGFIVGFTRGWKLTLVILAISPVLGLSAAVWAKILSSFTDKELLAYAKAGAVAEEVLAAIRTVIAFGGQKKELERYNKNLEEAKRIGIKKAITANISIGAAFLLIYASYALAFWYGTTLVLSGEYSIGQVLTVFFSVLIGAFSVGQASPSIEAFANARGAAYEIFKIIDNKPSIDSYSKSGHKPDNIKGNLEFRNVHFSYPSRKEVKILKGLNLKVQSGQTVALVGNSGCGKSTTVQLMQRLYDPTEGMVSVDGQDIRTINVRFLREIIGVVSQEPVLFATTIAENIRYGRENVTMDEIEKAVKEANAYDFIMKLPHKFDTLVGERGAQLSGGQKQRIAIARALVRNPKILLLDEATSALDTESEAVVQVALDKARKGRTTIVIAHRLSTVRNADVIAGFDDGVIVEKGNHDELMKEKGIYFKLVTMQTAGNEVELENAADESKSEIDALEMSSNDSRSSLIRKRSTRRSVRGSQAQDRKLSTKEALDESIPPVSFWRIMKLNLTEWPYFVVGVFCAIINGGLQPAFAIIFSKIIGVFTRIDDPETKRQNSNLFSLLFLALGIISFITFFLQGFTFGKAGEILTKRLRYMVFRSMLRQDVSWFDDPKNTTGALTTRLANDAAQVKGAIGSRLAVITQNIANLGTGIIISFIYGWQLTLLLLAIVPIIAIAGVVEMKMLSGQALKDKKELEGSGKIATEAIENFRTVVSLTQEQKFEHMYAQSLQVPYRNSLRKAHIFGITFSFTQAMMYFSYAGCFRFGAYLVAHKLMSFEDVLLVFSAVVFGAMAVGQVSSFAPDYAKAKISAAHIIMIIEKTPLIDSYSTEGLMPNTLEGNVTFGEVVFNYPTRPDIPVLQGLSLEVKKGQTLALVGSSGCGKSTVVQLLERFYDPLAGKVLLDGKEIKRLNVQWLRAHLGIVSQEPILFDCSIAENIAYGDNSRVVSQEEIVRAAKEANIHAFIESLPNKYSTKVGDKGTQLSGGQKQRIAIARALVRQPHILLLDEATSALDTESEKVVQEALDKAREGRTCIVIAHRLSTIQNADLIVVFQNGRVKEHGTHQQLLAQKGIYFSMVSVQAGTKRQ
Method: Cytarabine was also administered (100 mg/m^2/day) starting after the first dose of daunorubicin as a continuous intravenous infusion on days 1-7. Blood samples were taken at intervals for pharmacokinetic and pharmacodynamic studies. Pharmacokinetic drug determinations were conducted by HPLC. Pharmacodynamic assessments of cellular P-gp function were conducted using an accumulation assay with DiOC2 and flow cytometry. P-gp function was assessed on circulating natural killer (NK) cells and leukemic blasts. […] Means of 3 patients for each time point are shown.

Sequence of P450 isoenzyme 3A4 (P08684 whole entry, the tested form may be a part): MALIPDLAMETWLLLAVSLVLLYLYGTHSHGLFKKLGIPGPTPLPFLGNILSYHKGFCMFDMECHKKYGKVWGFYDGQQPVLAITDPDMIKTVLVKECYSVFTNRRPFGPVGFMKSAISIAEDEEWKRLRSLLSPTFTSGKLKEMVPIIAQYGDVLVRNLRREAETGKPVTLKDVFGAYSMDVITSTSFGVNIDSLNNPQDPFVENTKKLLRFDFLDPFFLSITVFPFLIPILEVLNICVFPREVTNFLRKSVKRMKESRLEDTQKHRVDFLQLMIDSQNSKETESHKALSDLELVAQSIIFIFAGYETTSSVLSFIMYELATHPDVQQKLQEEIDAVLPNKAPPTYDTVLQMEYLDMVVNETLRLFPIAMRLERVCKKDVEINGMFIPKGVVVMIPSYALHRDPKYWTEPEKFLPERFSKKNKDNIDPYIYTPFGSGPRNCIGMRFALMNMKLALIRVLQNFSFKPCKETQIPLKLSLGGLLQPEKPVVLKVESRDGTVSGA

| SMILES | substrate for the P450 isoenzyme 3A4 (P450 isoenzyme 3A4) | time to potent inhibition of P-gp function after start of zosuquidar infusion (P-gp) [h] |
| --- | --- | --- |
| COc1cc(C(=O)C(=O)N2CCCC[C@H]2C(=O)OC(CCCc2cccnc2)CCCc2cccnc2)cc(OC)c1OC [biricodar] | substrates for the P450 isoenzyme 3A4 | – |
| C/C=C/C[C@@H](C)C(=O)[C@H]1C(=O)N[C@@H](C(C)C)C(=O)N(C)CC(=O)N(C)[C@@H](CC(C)C)C(=O)N[C@@H](C(C)C)C(=O)N(C)[C@@H](CC(C)C)C(=O)N[C@@H](C)C(=O)N[C@H](C)C(=O)N(C)[C@@H](CC(C)C)C(=O)N(C)[C@@H](CC(C)C)C(=O)N(C)[C@@H](C(C)C)C(=O)N1C [valspodar] | substrates for the P450 isoenzyme 3A4 | – |
| O[C@@H](COc1cccc2ncccc12)CN1CCN([C@@H]2c3ccccc3[C@@H]3[C@H](c4ccccc42)C3(F)F)CC1 [zosuquidar] | – | ≤ 2 |
